Publication PMC6270094, “Dibenzo[1,2,5]thiadiazepines Are Non-Competitive GABAA Receptor Antagonists” (Molecules, 2013)
Where two headings read alike, the source gives them in different places.

Tests used:
[1] = tested on: native GABAA receptors of guinea pig myenteric neurons; experiment: Whole-cell recordings of membrane currents induced by GABA (IGABA) in cultured myenteric neurons; format: cell-based; settings: for Effect of maximal antagonist concentration on IGABA: maximal concentrations used; for Voltage dependence of inhibitory effect (−60 mV vs +40 mV) / Time constant (t) of IGABA inhibition / Time to reach maximum inhibition: 100 μM DBTD; for Time constant (t) of IGABA inhibition: 3–180 s, Michaelis–Menten fit; for Time to reach maximum inhibition: after initial exposure; for Percentage of inhibition of GABA-induced inward currents: 100 μM compound, 3 min treatment, mean ± SEM (n); for Reversibility of current inhibition on washing: within five minutes of washing; for Amplitude of IGABA with compound inside the pipette: 2b 100 μM internal
Description: Guinea pigs (100–200 g; either male or female) were sacrificed by cervical dislocation and carotid exsanguination. These methods have been approved by the Animal Care Committee of the IPICYT and are in agreement with the published Guiding Principles in the Care and Use of Animals, approved by the American Physiological Society. A segment of ~10 cm of the jejunum was removed and placed in a modified Krebs solution (in mM: NaCl, 126; NaH2PO4, 1.2; MgCl2, 1.2; CaCl2, 2.5; KCl, 5; NaH2CO3, 25; glucose, 11. The sample was gassed under 95% O2 and 5% CO2) and opened longitudinally. A dissecting microscope was used to dissect the mucosa and submucosa layers prior to removing most of the circular muscle layer, leaving the myenteric plexus embedded in a longitudinal layer.
The cell isolation procedure has been described elsewhere. The myenteric preparation was dissociated by sequential treatment with two enzymatic solutions: the first solution contained papain (0.01 mL·mL^−1 activated with 0.4 mg·mL^−1L-cysteine), and the second solution contained collagenase (1 mg·mL^−1) and dispase (4 mg·mL^−1). The enzymes were removed by washing the neurons with L15 medium, and the neurons were placed on round coverslips coated with sterile rat-tail collagen. The culture medium was varied from minimal medium to essential medium 97.5% containing 2.5% guinea pig serum, 2 mM L-glutamine, 10 U·mL^−1 penicillin, 10 μg·mL^−1 streptomycin, and 15 mM glucose.
To reduce the effects of the membrane currents other than those mediated by the activation of LGIC, experiments were conducted in the presence of Cs^+ (a potassium channel blocker). […] The holding potential was −60 mV (unless otherwise stated), and the short-term (4–50 h) primary cultures of the myenteric neurons were used to prevent space-clamp problems due to neurite growth. Glass pipettes with a resistance of 2–5 MΩ were prepared as described previously. This low resistance and slight suction inside the pipette during the recordings maintained a low series resistance (around 6 MΩ).
All experiments were conducted using standard solutions with the following compositions (in mM); inside the pipette: CsCl, 160; EGTA, 10; HEPES, 5; NaCl, 10; ATPMg, 3 and GTP, 0.1; external solution: NaCl, 160; CaCl2, 2; glucose, 11; HEPES, 5 and CsCl, 3. The pH of all solutions was adjusted to 7.3–7.4 using either CsOH (pipette solution) or NaOH (external solution). The seal resistance in the whole-cell mode ranged from 1 to 10 GΩ. The whole-cell current data were recorded on a PC using the AxoScope software (Axon Instruments, Inc.) and were analyzed using the AXOGRAPH software (Molecular Devices, CA, USA). The recording chamber was superfused with an external solution at ~2 mL·min^−1. The solution around the neuron was quickly exchanged during recordings using an eight-tube device. Each tube was connected to a syringe (10 mL) containing either the control or the experimental solution. A control tube was positioned ~300 μm in front of the recorded neuron, and substances were applied externally by abruptly interchanging the tube for another tube containing the control solution plus the drug(s). […] Experimental substances were removed by returning to the control solution. External solutions were applied by gravity, and the height of the syringes was continuously adjusted to minimize changes in the flow rate. The experiments were performed at room temperature (24 ± 1 °C).
L15 medium, minimum essential medium, Hanks solution, penicillin-streptomycin, and L-glutamine were purchased from GIBCO (Life Technologies Corp., Carlsbad, CA, USA). Collagenase and papain were purchased from Worthington (Worthington Biochemical Corp., Lakewood, NJ, USA), and dispase was purchased from Roche (Indianapolis, IN, USA). […] Pentobarbital-Na was purchased from Lab Ttokkyo, S.A. (México, D.F., Mexico).

[2] = Solubility under the electrophysiological experimental conditions; format: physicochemical; settings: for solubility: under experimental conditions, read-out: Highest soluble concentration (insoluble above)
Procedure: To investigate this possibility, we added 100 μM 2b to the pipette solution (internal) and monitored IGABA, and we applied 2b to the outside of the cells and monitored the inhibitory effects (Figure 6). Experiments were performed using 2b, even though cLog P was less than 2, because 2c and 2d were insoluble under the conditions employed. […] Consistent with these findings, in recordings with 2b in the pipette, the amplitude of IGABA was the same 5 min (−1536 ± 379 pA) and 10 min (−1604 ± 409 pA; n = 4) after obtaining the whole-cell configuration. […] Thus, such an inhibition was as large as that observed without 2b inside the cells (Figure 6B).

[3] = DBTD 3–1,000 μM, 3 min before 300 μM GABA, fit assuming 100% inhibition, read-out: IC50 for inhibition of IGABA by DBTDs

Question: For CCOC(=O)c1ncn2c1CN(C)C(=O)c1cc(F)ccc1-2 [flumazenil, reference compound], which “Effect of flumazenil alone on holding current or IGABA” value ([1]; 10 μM, 3 min, five neurons, data not shown) is on record?
Answer: The value was “did not induce changes in the holding current or IGABA”.

Question: With CN1CCc2cc3c(cc2[C@H]1[C@@H]1OC(=O)c2c1ccc1c2OCO1)OCO3 [bicuculline, reference compound] as the compound, how does the “Effect of maximal antagonist concentration on IGABA” value [1] read?
Answer: Its value is “virtually abolished IGABA”.

Question: What about the IC50 ([1]; read-out: IC50 for inhibition of IGABA by GABAA inhibitors) of the same compound?
Answer: Its IC50 is 10 ± 2 µM.

Question: Which “Amplitude of IGABA among different neurons” value ([1]; response to 300 μM GABA, −60 mV) does the source give for NCCCC(=O)O [GABA] here?
Answer: Its value is 0.1–6 nA.

Question: For O=S1(=O)Nc2ccc(Cl)cc2Nc2ccccc21 [2c, 9-Chloro-6,11-dihydrodibenzo[c,f][1,2,5]thiadiazepine-5,5-dioxide], which solubility [2] is on record?
Answer: The solubility was no more than 300 µM.

Question: And the “Voltage dependence of inhibitory effect (−60 mV vs +40 mV)” value ([1]; 300 μM GABA)?
Answer: The value was “identical”.

Question: And the “Time constant (t) of IGABA inhibition” value ([1]; 300 μM GABA)?
Answer: Its value is 2.6 s.

Question: And the “Time to reach maximum inhibition” value [1]?
Answer: The value was 3 min.

Question: And the “Percentage of inhibition of GABA-induced inward currents” value ([1]; 300 μM GABA)?
Answer: Its value is 74.2 ± 3.6 (6) %.

Question: And the IC50 [1, 3]?
Answer: The IC50 was 50.4 ± 6.4 µM.

Question: What about the “Interaction with picrotoxin effect” value ([1]; simultaneous application, n = 4) of the same compound?
Answer: The value was “neither picrotoxin effect was modified by 2c nor the inhibitory effect of 2c was affected by picrotoxin”.

Question: What about the “Reversibility of current inhibition on washing” value [1] of the same compound?
Answer: Its value is “fully reversed”.

Question: Which “Decrease of the maximum of the GABA concentration–response curve” value ([1]; 100 μM 2b) does the source give for O=S1(=O)Nc2ccc(F)cc2Nc2ccccc21 [2b, 9-Fluoro-6,11-dihydrodibenzo[c,f][1,2,5]thiadiazepine-5,5-dioxide] here?
Answer: The value was ~ 50%.

Question: What about the Type of antagonism ([1]; 100 μM 2b, GABA concentration-response curves) of the same compound?
Answer: Its Type of antagonism is “non-competitive”.

Question: And the “Voltage dependence of inhibitory effect (−60 mV vs +40 mV)” value ([1]; 300 μM GABA)?
Answer: The value was “identical”.

Question: What about the “Time constant (t) of IGABA inhibition” value ([1]; 300 μM GABA) of the same compound?
Answer: Its value is 4.9 s.

Question: And the “Time to reach maximum inhibition” value [1]?
Answer: Its value is 3 min.

Question: What about the “Percentage of inhibition of GABA-induced inward currents” value ([1]; 300 μM GABA) of the same compound?
Answer: The value was 50.8 ± 2.1 (12) %.

Question: What about the “Amplitude of IGABA with compound inside the pipette” value ([1]; 300 μM GABA, 2 to 3 min after whole cell configuration, n = 4) of the same compound?
Answer: The value was −1408 ± 344 pA.

Question: What about the “Amplitude of IGABA with compound inside the pipette” value ([1]; 5 min after whole-cell configuration) of the same compound?
Answer: The value was −1536 ± 379 pA.

Question: And the “Amplitude of IGABA with compound inside the pipette” value ([1]; 10 min after whole-cell configuration, n = 4)?
Answer: The value was −1604 ± 409 pA.

Question: What about the IC50 [1, 3] of the same compound?
Answer: The IC50 was 104 ± 9.2 µM.

Question: What about the “Maximum effect on GABA-activated currents” value ([1]; at 1 mM) of the same compound?
Answer: The value was “complete inhibition”.

Question: And the “Reversibility of current inhibition on washing” value [1]?
Answer: Its value is “fully reversed”.

Question: For O=S1(=O)Nc2ccccc2Nc2ccccc21 [2a, 6,11-Dihydrodibenzo[c,f][1,2,5]thiadiazepine-5,5-dioxide], which “Solubility remark (potency could not be calculated)” value [2] is on record?
Answer: The value was “solubility problems”.

Question: And the “Percentage of inhibition of GABA-induced inward currents” value ([1]; 300 μM GABA)?
Answer: Its value is 28.4 ± 1.4 (5) %.

Question: What does the source list for COc1ccc2c(c1)Nc1ccccc1S(=O)(=O)N2 [2e, 9-Methoxy-6,11-dihydrodibenzo[c,f][1,2,5]thiadiazepine-5,5-dioxide]?
Answer: Solubility remark (potency could not be calculated) [2]: solubility problems; Percentage of inhibition of GABA-induced inward currents ([1]; 300 μM GABA): 43.7 ± 3.8 (3) %

Question: For picrotoxin [reference compound], which IC50 ([1]; bicuculline 0.1–100 μM, picrotoxin 3–1,000 μM, data not shown, read-out: IC50 for inhibition of IGABA by GABAA inhibitors) is on record?
Answer: The IC50 was 6 ± 1 µM.

Question: And the “Effect of maximal antagonist concentration on IGABA” value [1]?
Answer: The value was “virtually abolished IGABA”.

Question: Which results are given for O=C(O)c1ccc2c(c1)Nc1ccccc1S(=O)(=O)N2 [2g, 6,11-Dihydrodibenzo[c,f][1,2,5]thiadiazepine-9-carboxylic acid 5,5-dioxide]?
Answer: melting point: 350 °C; Solubility remark (potency could not be calculated) [2]: solubility problems; Percentage of inhibition of GABA-induced inward currents ([1]; 300 μM GABA): 16.0 ± 2.4 (6) %

Question: Which solubility [2] does the source give for O=S1(=O)Nc2ccc(Br)cc2Nc2ccccc21 [2d, 9-Bromo-6,11-dihydrodibenzo[c,f][1,2,5]thiadiazepine-5,5-dioxide] here?
Answer: The solubility was no more than 300 µM.

Question: What about the “Voltage dependence of inhibitory effect (−60 mV vs +40 mV)” value ([1]; 300 μM GABA) of the same compound?
Answer: Its value is “identical”.

Question: And the “Time constant (t) of IGABA inhibition” value ([1]; 300 μM GABA)?
Answer: The value was 29.3 s.

Question: What about the “Percentage of inhibition of GABA-induced inward currents” value ([1]; 300 μM GABA) of the same compound?
Answer: The value was 74.2 ± 2.4 (10) %.

Question: What about the “Calculated time required to reach maximum inhibition” value ([1]; 100 μM, calculated from fit) of the same compound?
Answer: The value was 17 min.

Question: What about the Calculated maximum inhibition ([1]; 100 μM, from Michaelis–Menten fit) of the same compound?
Answer: Its Calculated maximum inhibition is 87.0 ± 3.0%.

Question: What about the IC50 [1, 3] of the same compound?
Answer: Its IC50 is 47.6 ± 30.3 µM.

Question: What about the “Reversibility of current inhibition on washing” value [1] of the same compound?
Answer: Its value is “fully reversed”.

Question: With CCOC(=O)c1ccc2c(c1)Nc1ccccc1S(=O)(=O)N2 [2f, Ethyl 6,11-dihydrodibenzo[c,f][1,2,5]thiadiazepine-9-carboxylate-5,5-dioxide] as the compound, how does the “Solubility remark (potency could not be calculated)” value [2] read?
Answer: The value was “solubility problems”.

Question: What about the “Percentage of inhibition of GABA-induced inward currents” value ([1]; 300 μM GABA) of the same compound?
Answer: Its value is 47.1 ± 3.7 (7) %.
